Experiments:
[1] = Oral bioavailability in dog; format: ADME, organism-based, Canis lupus familiaris; conditions: in vivo
Aldehyde oxidase 1 [2] = target: T1, Aldehyde oxidase 1 (Macaca fascicularis, UniProt Q5FB27); test: Inhibition of monkey aldehyde oxidase
T1 sequence (Q5FB27 whole entry): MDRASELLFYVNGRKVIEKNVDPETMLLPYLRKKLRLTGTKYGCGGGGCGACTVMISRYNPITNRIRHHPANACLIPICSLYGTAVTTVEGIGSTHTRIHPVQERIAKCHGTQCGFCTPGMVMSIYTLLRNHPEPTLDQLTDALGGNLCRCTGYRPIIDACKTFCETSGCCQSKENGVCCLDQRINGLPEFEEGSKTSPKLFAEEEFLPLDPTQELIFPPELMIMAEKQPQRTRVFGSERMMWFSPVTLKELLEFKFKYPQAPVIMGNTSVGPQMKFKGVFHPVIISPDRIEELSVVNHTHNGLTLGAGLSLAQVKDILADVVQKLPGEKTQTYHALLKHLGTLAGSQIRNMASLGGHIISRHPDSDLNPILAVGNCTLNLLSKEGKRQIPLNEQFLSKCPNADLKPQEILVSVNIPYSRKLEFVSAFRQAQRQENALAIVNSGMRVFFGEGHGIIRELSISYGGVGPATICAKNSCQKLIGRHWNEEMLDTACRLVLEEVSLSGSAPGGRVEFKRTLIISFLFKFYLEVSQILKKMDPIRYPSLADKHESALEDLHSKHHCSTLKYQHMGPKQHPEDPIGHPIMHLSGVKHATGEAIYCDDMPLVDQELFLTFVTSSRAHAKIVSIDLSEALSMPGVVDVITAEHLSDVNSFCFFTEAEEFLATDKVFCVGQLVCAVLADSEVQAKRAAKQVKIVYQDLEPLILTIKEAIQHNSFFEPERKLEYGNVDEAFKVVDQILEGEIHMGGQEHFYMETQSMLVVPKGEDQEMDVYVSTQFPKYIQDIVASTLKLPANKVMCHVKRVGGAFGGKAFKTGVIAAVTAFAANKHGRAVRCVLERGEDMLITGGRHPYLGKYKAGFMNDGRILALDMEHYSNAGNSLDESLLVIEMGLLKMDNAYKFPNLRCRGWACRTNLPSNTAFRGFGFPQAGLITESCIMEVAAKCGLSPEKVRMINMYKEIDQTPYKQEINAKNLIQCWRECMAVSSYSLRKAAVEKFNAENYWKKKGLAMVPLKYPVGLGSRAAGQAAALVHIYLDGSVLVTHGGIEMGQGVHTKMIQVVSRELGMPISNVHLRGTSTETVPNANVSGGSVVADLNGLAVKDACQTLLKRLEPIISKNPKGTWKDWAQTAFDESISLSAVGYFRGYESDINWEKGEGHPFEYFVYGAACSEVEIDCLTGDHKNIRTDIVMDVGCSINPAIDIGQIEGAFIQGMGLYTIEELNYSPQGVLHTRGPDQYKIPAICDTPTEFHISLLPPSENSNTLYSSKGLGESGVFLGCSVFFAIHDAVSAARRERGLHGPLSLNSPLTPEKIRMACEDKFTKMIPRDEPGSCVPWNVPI

Aldehyde oxidase 1 [3] = target: T2, Aldehyde oxidase 1 (Mus musculus, UniProt O54754); test: Inhibition of mouse aldehyde oxidase
T2 sequence (O54754 whole entry): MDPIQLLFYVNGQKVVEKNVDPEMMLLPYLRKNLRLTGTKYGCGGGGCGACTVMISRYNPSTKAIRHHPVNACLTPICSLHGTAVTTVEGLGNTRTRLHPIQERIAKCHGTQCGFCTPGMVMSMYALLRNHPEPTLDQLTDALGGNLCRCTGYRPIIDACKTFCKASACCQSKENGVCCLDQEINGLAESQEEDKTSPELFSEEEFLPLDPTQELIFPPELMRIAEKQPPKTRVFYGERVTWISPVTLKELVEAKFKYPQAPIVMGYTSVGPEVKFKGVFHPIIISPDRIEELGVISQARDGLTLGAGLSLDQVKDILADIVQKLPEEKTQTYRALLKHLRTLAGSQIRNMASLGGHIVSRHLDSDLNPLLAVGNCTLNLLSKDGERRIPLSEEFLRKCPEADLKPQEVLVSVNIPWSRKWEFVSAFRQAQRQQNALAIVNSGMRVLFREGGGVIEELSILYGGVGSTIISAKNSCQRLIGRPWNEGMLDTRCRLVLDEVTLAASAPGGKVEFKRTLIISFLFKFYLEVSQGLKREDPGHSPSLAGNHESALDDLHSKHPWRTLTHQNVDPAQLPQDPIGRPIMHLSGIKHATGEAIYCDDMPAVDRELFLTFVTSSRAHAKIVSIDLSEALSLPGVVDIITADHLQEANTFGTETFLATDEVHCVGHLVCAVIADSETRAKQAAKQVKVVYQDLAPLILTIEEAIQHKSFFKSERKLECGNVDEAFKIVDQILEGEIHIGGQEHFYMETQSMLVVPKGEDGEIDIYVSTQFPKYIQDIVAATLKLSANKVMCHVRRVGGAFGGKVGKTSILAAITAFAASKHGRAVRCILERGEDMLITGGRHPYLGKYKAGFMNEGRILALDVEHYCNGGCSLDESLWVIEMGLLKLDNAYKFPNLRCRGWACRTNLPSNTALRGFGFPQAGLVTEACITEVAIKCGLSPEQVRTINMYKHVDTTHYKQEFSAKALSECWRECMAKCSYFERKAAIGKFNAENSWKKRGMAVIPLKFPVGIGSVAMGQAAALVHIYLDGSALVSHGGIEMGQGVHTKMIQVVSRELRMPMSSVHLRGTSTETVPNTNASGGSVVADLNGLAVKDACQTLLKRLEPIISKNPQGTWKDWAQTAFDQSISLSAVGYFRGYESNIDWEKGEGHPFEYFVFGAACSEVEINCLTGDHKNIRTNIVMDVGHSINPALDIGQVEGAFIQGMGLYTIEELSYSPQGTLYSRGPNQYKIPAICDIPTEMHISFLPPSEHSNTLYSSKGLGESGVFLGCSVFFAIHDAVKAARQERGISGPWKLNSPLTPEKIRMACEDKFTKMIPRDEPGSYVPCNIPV

Aldehyde oxidase 1 [4] = target: T3, Aldehyde oxidase 1 (Rattus norvegicus, UniProt Q9Z0U5); test: Inhibition of rat aldehyde oxidase
T3 sequence (Q9Z0U5 whole entry): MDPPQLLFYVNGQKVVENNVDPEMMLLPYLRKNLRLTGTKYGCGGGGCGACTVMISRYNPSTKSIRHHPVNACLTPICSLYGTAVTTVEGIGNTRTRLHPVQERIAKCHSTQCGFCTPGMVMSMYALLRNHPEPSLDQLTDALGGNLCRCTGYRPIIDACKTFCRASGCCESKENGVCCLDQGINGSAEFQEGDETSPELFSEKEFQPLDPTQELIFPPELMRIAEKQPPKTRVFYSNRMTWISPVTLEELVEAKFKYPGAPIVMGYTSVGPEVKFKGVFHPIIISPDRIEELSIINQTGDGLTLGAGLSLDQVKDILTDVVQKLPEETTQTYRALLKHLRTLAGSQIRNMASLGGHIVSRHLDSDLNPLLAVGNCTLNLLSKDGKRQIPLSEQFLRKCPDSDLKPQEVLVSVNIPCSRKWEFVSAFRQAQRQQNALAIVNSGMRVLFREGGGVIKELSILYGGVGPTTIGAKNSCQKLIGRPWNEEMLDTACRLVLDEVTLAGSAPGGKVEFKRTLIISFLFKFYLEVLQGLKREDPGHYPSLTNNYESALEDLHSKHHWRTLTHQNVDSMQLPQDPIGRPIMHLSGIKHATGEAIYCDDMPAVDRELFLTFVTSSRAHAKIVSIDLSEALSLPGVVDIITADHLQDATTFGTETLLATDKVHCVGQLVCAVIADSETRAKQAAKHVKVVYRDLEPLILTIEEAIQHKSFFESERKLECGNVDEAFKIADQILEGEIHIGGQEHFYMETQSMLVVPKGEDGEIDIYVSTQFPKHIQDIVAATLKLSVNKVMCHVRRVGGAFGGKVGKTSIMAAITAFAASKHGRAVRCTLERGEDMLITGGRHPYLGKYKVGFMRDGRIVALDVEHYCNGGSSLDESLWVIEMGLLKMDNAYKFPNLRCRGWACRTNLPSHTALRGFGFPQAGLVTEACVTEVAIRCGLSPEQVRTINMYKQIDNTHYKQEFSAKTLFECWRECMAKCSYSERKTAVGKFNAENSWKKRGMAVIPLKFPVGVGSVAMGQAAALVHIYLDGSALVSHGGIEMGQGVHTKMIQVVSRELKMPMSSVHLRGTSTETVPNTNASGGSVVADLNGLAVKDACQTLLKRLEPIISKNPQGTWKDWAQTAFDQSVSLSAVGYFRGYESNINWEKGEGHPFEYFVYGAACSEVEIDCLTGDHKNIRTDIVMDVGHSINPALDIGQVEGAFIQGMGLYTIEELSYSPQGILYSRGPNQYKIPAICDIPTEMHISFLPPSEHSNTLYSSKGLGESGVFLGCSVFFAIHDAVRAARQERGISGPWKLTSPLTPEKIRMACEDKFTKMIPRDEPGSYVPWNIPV

Homo sapiens = test: In-vivo intrinsic clearance in human; format: ADME, organism-based

`CCNC(=O)OC1CCN(c2n[nH]c(=O)c3cc(OC)c(OC)cc23)CC1` showed a bioavailability [1] of 68%.

In the case of `O=C(c1ccc(OCCN2CCCCC2)cc1)c1c(-c2ccc(O)cc2)sc2cc(O)ccc12` [RALOXIFENE], the IC50 (Aldehyde oxidase 1 [2]) is reported as 500 nM, the IC50 (Aldehyde oxidase 1 [3]) is reported as 500 nM and the IC50 (Aldehyde oxidase 1 [4]) is reported as 1100 nM.

With `CCN(C(C)=O)c1cccc(-c2ccnc3c(C#N)cnn23)c1` [ZALEPLON] the CL (Homo sapiens) was 90 mL/min/kg.
